PubChem BioAssay AID179 (DTP/NCI, 2004)
Where “and” joins values, the source holds several entries; their conditions need not be identical. Equal entries are not always repeated. Calls of active or inactive are those of the source.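 How the source made its calls: active means compounds giving half or more protection of infected cells from virus-caused growth loss, again on retest; inactive means the rest.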

Tested on: CEM cells HIV-1 protection, formazan growth assay
Test: NCI AIDS Antiviral Assay
Settings: for IC50: measured here: growth of uninfected CEM cells
In short: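 Protection of CEM cells against HIV-1 was scored from cell growth (soluble formazan) across five concentrations, with parallel uninfected cells. Lack of protection may reflect toxicity.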

Structure (SMILES)	outcome	EC50 [µM]	IC50
[N-]=[N+]=NC1CC(n2cc(Cc3cccc(OCc4ccccc4)c3)c(=O)[nH]c2=O)OC1CO (stereo not given)	inactive		
NCCS		> 1410	525 µM
COC(=O)C(Cc1ccccc1)NC(=O)c1ccc(CNC(=S)NCc2cccc(CNC(=S)NCc3ccccc3)c2)cc1 (stereo not given)		> 200	148 µM
COc1ccc(OC)c(NC(=O)C(=O)C(C(=O)c2ccccc2F)C2OC(=O)c3ccccc32)c1 (stereo not given)		> 275	13.2 µM
COc1cccc(C=C(C#N)C#N)c1		> 708	115 µM
CO/N=C1/c2sccc2[C@H](NC(=O)C(F)(F)F)[C@@H]1O		> 200	> 200 µM
NC1=C(c2nc(-c3ccccc3)cs2)C(c2ccco2)c2c(c3ccccc3oc2=O)O1 (stereo not given)		> 200	93.3 µM
O=C1c2cccn2-c2ccccc2OC1(CC1CC1)c1ccccc1 (stereo not given)		> 200	11.5 µM
CC(=O)C(C(=O)C(C)(C)C)C(=O)C(C)(C)C		> 200	> 200 µM
COc1ccc2nc(N/N=C/c3ccc(C)s3)cc(C)c2c1		> 200	12.9 µM
CC(=O)C1=C(O)CCC1=O		> 200	> 200 µM
O=C(O)c1ccc(NC(NC(=O)C(C(F)(F)F)C(F)(F)F)(C(F)(F)F)C(F)(F)F)cc1		> 200	> 200 µM
COc1ccc(C2C(Cl)C(=O)N2NC(=O)c2ccc(N)cc2)cc1OC (stereo not given)		> 200	8.51 µM
C=C1C(=O)O[C@@H]2C[C@@H](C)[C@@H]3C=CC(=O)[C@@]3(C)[C@@H](OC(=O)CCCC(=O)O[C@H]3[C@@H]4C(=C)C(=O)O[C@@H]4C[C@@H](C)[C@@H]4C=CC(=O)[C@]43C)[C@H]12		> 5.75	0.407 µM
CC1(C)OC(=O)C(=Cc2ccc(F)cc2)C(=O)O1		> 525	170 µM
Nc1ccn([C@H]2CO[C@@H](CO)[C@@H]2O)c(=O)n1		> 200	> 200 µM
Cc1ccc(S(=O)(=O)OI(C#CC(C)(C)C)c2ccccc2)cc1		> 200	1.05 µM
O=C(C1OC1c1ccc([N+](=O)[O-])cc1)C12CC3CC(CC(C3)C1)C2 (stereo not given)		> 200	12.3 µM
CCSc1nc(N)c2c(-c3ccccc3)c3c(nc2n1)CCC3		> 100	> 100 µM
Nc1nc(Cl)c2ncn(C3C=CC(CO)CC3)c2n1 (stereo not given)		> 200	97.7 µM
COC1(OC)N=C(N)C2(C#N)/C(=N/N(C)C)CC(C)C12C#N (stereo not given)		> 200	> 200 µM
COC(=O)c1cc2ccccc2c2nc3ccccc3c(Cl)c12		> 8.13	> 8.13 µM

Structure (SMILES)	outcome	EC50 [µM]	IC50
Cc1ccc(/C(O)=C/c2nc3ccccc3nc2NC23CC4CC(CC(C4)C2)C3)cc1		> 200	> 200 µM
C/C(=N\NC(=O)N/N=C(\C)c1ccccn1)c1ccccn1		> 2	0.0339 µM
CCCNP(=S)(NCCC)NCCC		> 200	> 200 µM
C=Cc1nc(C#N)c(N)o1	inactive		
CC(=O)C(=O)N1Cc2cc3ccccc3nc2C1		> 708	257 µM
Cc1cc(Cl)ccc1N1C(=O)C(=O)C(c2nc3ccccc3s2)/C(=N\NC(=O)c2ccccc2O)C1=O (stereo not given)		> 25.7	> 25.7 µM
O=C(CCn1ccnc1[N+](=O)[O-])NCCCn1ccnc1[N+](=O)[O-]		> 200	> 200 µM
COc1c(O)ccc2oc3cc(O)cc(O)c3c(=O)c12		> 200	145 µM
CC1=NN2C(=O)CSC2=NC(C)(C)C1		263	1170 µM
CC(C)(C)N1COCO[C@H]2CCC[C@@H]21		> 525	186 µM
CN(C)c1ccc2c(c1)-c1cc(N(C)C)ccc1C2=C/C=C1\C(=O)c2ccccc2C1=C(C#N)C#N		> 15.5	> 15.5 µM
CC(C)(S)C(N)C(=O)O (stereo not given)		> 1660	> 1660 µM
O=C1CCC(N2C(=O)C3C(C2=O)C2(Cl)C(Cl)=C(Cl)C3(Cl)C2(Cl)Cl)C(=O)N1 (stereo not given)		> 200	> 200 µM
CCn1c(=O)nc2n(-c3ccc(SC)cc3)c3ccccc3nc-2c1=O	inactive		
CCOC(=O)/C(=C\c1ccc(C#N)cc1)C(C)=O		> 148	77.6 µM
Cc1ccc(S/C=C/C(=O)Nc2ccccc2)cc1		> 37.2	> 37.2 µM and 25.1 µM
Cc1c(CCCl)c(=O)n2c([nH]c3ccccc32)c1C#N		> 200	7.59 µM
CC1CC(C2=CC=CCS2)=Nc2ccccc2S1 (stereo not given)		> 55	53.7 µM
NCCCNCCSSCCCCS(=O)O	inactive		
Cc1csc2[n+]1C(=O)/C(=C\c1ccc([N+](=O)[O-])cc1)S2		> 200	29.5 µM
CCN(CC)CCCNc1ncnc2c1C(c1ccccc1)c1ccccc1-2 (stereo not given)		> 676	33.1 µM
CC(=O)Nc1cccc2cc(S(=O)(=O)O)ccc12		> 200	> 200 µM

Structure (SMILES)	outcome	EC50 [µM]	IC50
O=C(CCCN1CCC2(CC1)C(=NC1CCCCC1)NC(=O)N2c1ccccc1)c1ccc(F)cc1		> 200	93.3 µM
CO/C(N)=C(\C#N)N=Cc1cccnc1		> 200	> 200 µM
O=c1c(SCc2ccc(F)cc2)c(SCc2ccc(F)cc2)cnn1-c1ccccc1		> 15.8	> 15.8 µM
CC(C)CCCC(C)[C@H]1CC[C@@H]2[C@H]3CC[C@H]4C[C@@H](CCC=C(c5cc(Cl)c(OCc6ccc(C(=O)O)cc6)c(C(=O)O)c5)c5cc(Cl)c(OCc6ccc(C(=O)O)cc6)c(C(=O)O)c5)CC[C@]4(C)[C@@H]3CC[C@]12C (stereo not given in full)		4.17	112 µM
O=C1c2cccc3cccc(c23)C(=O)N1NCCO		> 200	162 µM
CC1=C2CC[C@@]3(C)C(=CCC3O)C2(C)CCC1=O (stereo not given in full)	inactive		
CCOC(=O)C(=O)Nc1cccc(C)c1C		> 813	> 813 µM
COc1ccc2c(c1)O[C@]1(O)c3cc4c(cc3O[C@@H]1C2)OCO4		> 12	> 12 µM
O=C(NC(CO)CO)c1ccc2cc(C(=O)N3CC(CCl)c4ccc([N+](=O)[O-])cc43)[nH]c2c1 (stereo not given)		> 200	53.7 µM
O=S(=O)(c1ccc(Br)cc1)n1c2ccc(Br)cc2c2nc3ccccc3nc21		> 100	> 100 µM
COc1ccc(/C=C/C(=O)c2ccc(Br)cc2)cc1		> 200	33.1 µM
COc1cc(-c2cc(-c3cc([N+](=O)[O-])c(/C=N/NC(=O)c4ccncc4)o3)ccc2OC)ccc1C		> 269	55 µM
COc1ccc(OC)c(CCCC(=O)O)c1		0.0631	> 200 µM
COc1ccc(-c2cc(C(=O)Nc3cc(C(F)(F)F)cc(C(F)(F)F)c3)c3ccccc3n2)cc1		> 14.8	> 14.8 µM
Cc1ccc(C)c(C(=O)c2ccccc2)c1C(=O)O		> 200	> 200 µM
CCOP(=O)(OCC)C(Nc1ccc(Br)cc1)c1cccc([N+](=O)[O-])c1 (stereo not given)	inactive		
CNC(=O)OC(C)CN1c2ccccc2Sc2ccc(Cl)cc21 (stereo not given)		> 200	26.9 µM
CCOC(=O)CCCNC(=O)CCCCC(=O)N(C)C		> 200	> 200 µM
Sc1nnc(-c2ccccc2Nc2ccccc2-c2nnc(S)n2-c2ccccc2)n1-c1ccccc1		> 87.1	25.1 µM
CCCCOC(=S)SSC(=S)OCCCC		> 56.2	11.5 µM
CCOC(=O)/C=C/CC(C)(C)COC(C)=O	inactive		
Cc1cccc(Nc2nc3ccccc3nc2NS(=O)(=O)c2ccc(N)cc2)c1		> 200	112 µM

Structure (SMILES)	outcome	EC50 [µM]	IC50
CN/N=C(/c1nc2ccc([N+](=O)[O-])cc2[nH]c1=O)C(O)c1ccc(C(O)/C(=N\NC)c2nc3ccc([N+](=O)[O-])cc3[nH]c2=O)cc1 (stereo not given)		> 107	77.6 µM
O=C1NC(=O)C(CN2C(=O)/C(=C/c3cccc(O)c3)SC2=S)C(=O)N1		> 200	91.2 µM
OCCNCCN=C1CCC(=NCCNCCO)CC1		> 200	32.4 µM
CCC(=O)c1c(NOC2OCC(OC(C)=O)C(OC(C)=O)C2OC(C)=O)nc(OC)n(C)c1=O (stereo not given)		> 53.7	> 53.7 µM
C/C=C/C(=O)[O-].N.N.N.N.N.[Co+3].[O-][Cl+3]([O-])([O-])[O-]	inactive		
COc1cc(CNc2nc3ccccc3n2Cc2ccccc2)cc(CN2CCOCC2)c1O		> 200	32.4 µM
O=[N+]([O-])c1ccccc1S(=O)c1ccccc1[N+](=O)[O-]		> 204	3.47 µM
CN(c1ccccc1)c1c(-c2ccccc2)c(=O)oc2c1ccc1occc12	inactive		
O=c1oc2ccccc2c(O)c1C(c1cnc2ccccc2c1)c1c(O)c2ccccc2oc1=O	inactive		
[C-]#[O+].[C-]#[O+].[C-]#[O+].[C-]#[O+].[Cr].c1ccc(P(CCP(CCP(c2ccccc2)c2ccccc2)c2ccccc2)CCP(c2ccccc2)c2ccccc2)cc1 (stereo not given)		> 1.74	> 1.74 µM
Cc1cc(Cl)cc2c1NC(=O)C2(O)CC(=O)c1ccco1 (stereo not given)		> 117	63.1 µM
CC(=O)CC(=O)Nc1c(C)[c]([Hg][O]C(C)=O)c(C)[c]([Hg][O]C(C)=O)[c]1[Hg][O]C(C)=O		> 1.48	> 1.48 µM
CCOC(=O)C1(Cc2ccccc2)Cc2cc3c(cc2C1)CCC3		> 200	33.9 µM
CN(C)c1cccc2c1C(=O)C=CC21CCc2ccc(N(C)C)c3c(N(C)C)ccc1c23 (stereo not given)		> 200	8.71 µM
COc1cccc(OC)c1OC(=O)Nc1ccccc1F		> 200	> 200 µM
O=C1NC(N/N=C\c2ccccc2)=N/C1=C/c1ccc(Cl)cc1	inactive		
CC(C)(C)c1cc2c(OC/C=C/c3ccccc3)c(c1)Cc1cc(C(C#N)(OC/C=C/c3ccccc3)OC/C=C/c3ccccc3)cc(c1OC/C=C\c1ccccc1)Cc1cc(C(C)(C)C)cc(c1OC/C=C/c1ccccc1)Cc1cc(C(C#N)(OC/C=C\c3ccccc3)OC/C=C/c3ccccc3)cc(c1OC/C=C\c1ccccc1)C2 (stereo not given)		> 100	> 100 µM
C#CCN1CCCC(O)C1 (stereo not given)	inactive		
N#C/C(=C1/Sc2c(nc[nH]c2=O)N1c1ccccc1)c1nc2ccccc2[nH]1		> 3.8	> 3.8 µM
COc1ccc2c(c1)CCc1cnoc1-2		> 178	110 µM
